Results: the NIST ThermoML archive (doi:10.1016/j.jct.2010.08.020)
“And” between values parts separate entries of the source, which are not always exact repeats. Identical values can stand only once. ± gives the expanded uncertainty stated by the source.

How the values were obtained:
[1] = molar enthalpy of vaporization or sublimation; settings: 298.15 K; Crystal; drop (calvet) calorimetry
[2] = Crystal; for vapor or sublimation pressure: Calculated from knudsen effusion weight loss

molar enthalpy of sublimation ([2]; 298.15 K, drop (calvet) calorimetry) [kcal/mol] | Structure (SMILES) | molar enthalpy [1] [kcal/mol] | vapor or sublimation pressure ([2]; 299.19 K) | vapor or sublimation pressure ([2]; 301.19 K) | vapor or sublimation pressure ([2]; 303.2 K) | vapor or sublimation pressure ([2]; 305.11 K) | vapor or sublimation pressure ([2]; 307.18 K) | vapor or sublimation pressure ([2]; 309.11 K) | vapor or sublimation pressure ([2]; 311.13 K) | vapor or sublimation pressure ([2]; 313.19 K) | vapor or sublimation pressure ([2]; 315.21 K) | vapor or sublimation pressure ([2]; 317.12 K)
 | Oc1ccc(Br)cc1Br [2,4-dibromophenol] | 19.4 ± 0.717 |  |  |  |  |  |  |  |  |  | 
 | Oc1c(Br)cccc1Br [2,6-dibromophenol] | 19.9 ± 0.717 |  |  |  |  |  |  |  |  |  | 
22.5 ± 0.86 | Oc1cc(Br)cc(Br)c1 [3,5-dibromophenol] |  | 0.00012 ± 6e-06 kPa and 0.000118 ± 6e-06 kPa and 0.000117 ± 6e-06 kPa | 0.000157 ± 8e-06 kPa and 0.000146 ± 7e-06 kPa and 0.000151 ± 8e-06 kPa | 0.000196 ± 1e-05 kPa and 0.000184 ± 9e-06 kPa and 0.000189 ± 9e-06 kPa | 0.000244 ± 1.2e-05 kPa and 0.000242 ± 1.2e-05 kPa and 0.000241 ± 1.2e-05 kPa | 0.000325 ± 1.6e-05 kPa and 0.000315 ± 1.6e-05 kPa and 0.000317 ± 1.6e-05 kPa | 0.000407 ± 2e-05 kPa and 0.000414 ± 2.1e-05 kPa and 0.000389 ± 1.9e-05 kPa | 0.000502 ± 2.5e-05 kPa and 0.000501 ± 2.5e-05 kPa and 0.000493 ± 2.5e-05 kPa | 0.000663 ± 3.3e-05 kPa and 0.000629 ± 3.2e-05 kPa and 0.00065 ± 3.3e-05 kPa | 0.000813 ± 4.1e-05 kPa and 0.000838 ± 4.2e-05 kPa and 0.000801 ± 4e-05 kPa | 0.001011 ± 0.0001 kPa and 0.001023 ± 0.0001 kPa and 0.000993 ± 5e-05 kPa
